“Also recorded” adds a separate entry of the source.
Assays:
[1] = system: KU812F-luc leukemia cells; assay: CS-BLI drug sensitivity of KU812F-luc leukemia cells in presence vs absence of HS-5 BMSCs; assay type: cell-based; conditions: presence vs absence of HS-5 BMSCs (10,000 per well)
From the text: In another set of experiments, Applicants tested and observed similar protective/sensitization effect of stroma cell on KU812F-luc cells on various drugs (data not shown).
(§1) Applicants expanded the application of in vitro compartment-specific bioluminescence imaging assays beyond the MM cells to other tumor models, namely a few leukemic cell lines. Applicants specifically tested luciferase-expressing K562-luc-neo and KU812F-luc-neo leukemic cells against standard anti-leukemia agents, including AraC and Doxo, in the presence vs. absence of HS-5 stromal cells (FIG. 7A and FIG. 7B).

[2] = system: MDA-MB-231met-luc-neo cells; assay: CS-BLI drug sensitivity of MDA-MB-231met-luc-neo cells alone or with HS-5 BMSCs; assay type: cell-based; conditions: MDA-MB-231met-luc-neo alone or with HS-5 BMSCs (10,000/well), 48 hrs
Experimental: (§2) MDA-MB-231met-luc-neo (FIG. 18A, FIG. 18B), A375-luc-neo (FIG. 18C, FIG. 18D) and FRO-luc-neo (FIG. 18E, FIG. 18F) cells were plated either alone or mixed with HS-5 BMSCs (10,000 /well) and treated the following day. The cultures of tumor cells and their co-cultures with BMSCs were incubated for an additional 48 hrs.

[3] = system: MM-1R-GFP-luc myeloma cells; assay: CS-BLI drug sensitivity of MM-1R-GFP-luc cells in presence vs absence of stromal cells; conditions: MM-1R-GFP-luc (Dex-resistant), presence vs absence of HS-5 BMSCs (10,000 per well)
[4] = system: MM-1S-GFP-luc myeloma cells; assay: Flow cytometry (Apo2.7) drug sensitivity testing in tumor-stromal co-culture; assay type: cell-based, human; conditions: Doxo 250 ng/mL, 48 hrs
Experimental: Applicants also evaluated the anti-tumor effects of these drugs in the presence of stromal cells, and compared the results obtained with in vitro compartment-specific bioluminescence vs. flow cytometric evaluation of drug-induced cell death. Specifically, luciferase-expressing MM cells were treated in vitro with Doxo (250 ng/mL) or vehicle, in the absence vs. presence of bone marrow stromal cells (BMSCs). For flow cytometry-based drug sensitivity testing in tumor-stromal co-culture, tumor cell viability in the presence vs. absence of stromal cells was evaluated by flow cytometry. Specifically, after incubation with drug or vehicle, MM-1S-GFP-luc myeloma cells were stained with Apo2.7 (BD Biosciences) to detect apoptotic cells. GFP positive myeloma cells were gated to distinguish them from GFP negative stromal cells in the co-cultures. The ratio of Apo2.7 positive cells in the GFP^+ compartment of the drug-treated condition vs. the vehicle-treated condition provided a quantified expression of viable cells in response to drug treatment. […] These flow cytometric results were consistent with results obtained with CS-BLI based applications as described in Example III.

[5] = system: MM-1S-GFP-luc myeloma cells; assay: CS-BLI drug sensitivity of MM-1S-GFP-luc cells in presence vs absence of stromal cells; assay type: cell-based, human
Experimental: Luciferin (7.5 mg/mL; Xenogen Corp, Alameda, Calif.) was added at the volume stated in each experiment. Cell viability and the precise cell counts were established by Trypan blue exclusion assay immediately before plating of the cells. Compartment-specific bioluminescence emitted by individual wells of these plates was measured with two different bioluminescence imaging modalities, namely a Xenogen IVIS® Imaging System (FIG. 1A and FIG. 1B) and a standard luminometer plate reader—Luminoskan luminometer (Labsystems, MA) (FIG. 1C). The results with each method were analyzed for the linearity of the bioluminescent signal vs. cell number using the Living Image® software (Xenogen Corp, Alameda Calif.).

K562-luc leukemia cells = assay: CS-BLI drug sensitivity of K562-luc leukemia cells in presence vs absence of HS-5 BMSCs; assay type: cell-based; conditions: presence vs absence of HS-5 BMSCs (10,000 per well)
From the text: as §1

A375-luc-neo cells = assay: CS-BLI drug sensitivity of A375-luc-neo cells alone or with HS-5 BMSCs; assay type: cell-based; conditions: A375-luc-neo alone or with HS-5 BMSCs (10,000/well), 48 hrs
Experimental: as §2

FRO-luc-neo cells = assay: CS-BLI drug sensitivity of FRO-luc-neo cells alone or with HS-5 BMSCs; assay type: cell-based; conditions: FRO-luc-neo alone or with HS-5 BMSCs (10,000/well), 48 hrs
Experimental: as §2

## COc1cccc2c1C(=O)c1c(O)c3c(c(O)c1C2=O)C[C@@](O)(C(=O)CO)C[C@@H]3O[C@H]1C[C@H](N)[C@H](O)[C@H](C)O1 [Doxo, Doxorubicin]
[1]
  effect of BMSC co-culture on tumor cell response to drug (protection): did not affect their response
[2]
  effect of BMSC co-culture on tumor cell response to drug (protection): modest protection
[3]
  effect of BMSC co-culture on tumor cell response to drug (protection): attenuated the responses; also recorded: confer protection
[4]
  Apo2.7 expression in GFP+ myeloma cells, co-culture with HS-5 vs absence of stroma: decreased expression of Apo2.7
[5]; presence vs absence of HS-5 BMSCs (10,000 per well)
  effect of BMSC co-culture on tumor cell response to drug (protection): attenuated the responses; also recorded: conferred protection; also recorded: confer protection
[5]; presence vs absence of KM101, KM103, KM104, KM105 BMSC lines, Doxo 0-250 ng/mL
  effect of BMSC co-culture on tumor cell response to drug (protection): protective effects; also recorded: conferred protection
K562-luc leukemia cells
  effect of BMSC co-culture on tumor cell response to drug (protection): do not confer protection
A375-luc-neo cells
  effect of BMSC co-culture on tumor cell response to drug (protection): no protection
FRO-luc-neo cells
  effect of BMSC co-culture on tumor cell response to drug (protection): modest protection

Reference: patent US20190011433A1, “CELL CO-CULTURE SYSTEMS AND USES THEREOF” (Dana-Farber Cancer Institute, Inc., priority 2007, published 2019)
